Experimental data taken from ChEMBL document CHEMBL4619748, “Enhancing the activity of membrane remodeling epsin-peptide by trimerization” (Bioorg Med Chem Lett, 2020).
Calls of active or inactive are those of the source. The rule behind the calls is not given here. Starred links: 1 amine or outer side, 2 acyl side, 3 side chain; linkers in the order of their positions; H or OH if unused. Positions of bridges follow the written chain, without caps; N, C: chain ends. Non-standard residues stand in square brackets, D forms with d. Chains are numbered I, II in the order given. εLys = N[C@@H](CCCCN[*:1])C(=O)[*:2]; Nle = CCCC[C@H](N)C(=O)O

Legend:
[1] = Cytotoxicity against human HeLa cells assessed as cell viability at <=1 uM by WST8 assay; format: cell-based; conditions: read-out: Activity
HeLa [2] = experiment: Induction of membrane-remodelling in human HeLa cells assessed as increase in cell internalization of FITC-R8 peptide at 0.25 uM incubated for 30 mins by PI staining based assay; format: cell membranes
HeLa [3] = experiment: Cytotoxicity against human HeLa cells assessed as proportion of cells with ruptured cell membrane at 1 uM incubated for 30 mins in presence of 10 uM FITC-R8 peptide by propidium iodide staining based assay; conditions: 0.5 h
Lipid bilayer [4] = experiment: Induction of membrane-remodelling in DOPE bilayer assessed as phase transition temperature required for conversion of lamellar L-alpha phase to inverted hexagonal HII phase at peptide to lipid molar ratio of 1:100 by solid-state 31P NMR analysis (reference value: 25 degC)
HeLa [5] = experiment: Induction of membrane-remodelling in human HeLa cells assessed as loosening of the lipid package by measuring decrease in generalized polarization of cell membrane at 0.5 uM incubated for 10 mins by di-4-ANEPPDHQ polarity-sensitive fluorescent membrane probe based confocal microscopic method; format: cell membranes
Lipid bilayer [6] = experiment: Binding affinity to POPC/POPS (3:1) LUVs assessed as stabilization of drug peptide's alpha helical signature with CD minima at around 208 and 222 nm and a positive ellipticity below 200 nm at 6.7 uM by CD spectroscopy
HeLa [7] = experiment: Induction of membrane-remodelling in human HeLa cells assessed as increase in cell internalization of FITC-R8 peptide at 1 uM incubated for 30 mins by PI staining based assay; format: cell membranes
HeLa [8] = experiment: Induction of membrane-remodelling in human HeLa cells assessed as increase in cell internalization of FITC-R8 peptide at 0.5 uM incubated for 30 mins by PI staining based assay relative to control; format: cell membranes

I: H-[Nle]SSLRRQ[Nle]KNIVHNYS[εLys]GKGKG-OH / II: H-[Nle]SSLRRQ[Nle]KNIVHNYS / III: H-[Nle]SSLRRQ[Nle]KNIVHNYS (amide I:19-III:C, I:21-II:C)
viability [1]: > 90%
Activity (HeLa [2]): Active
Activity (HeLa [3]): > 10%
T (Lipid bilayer [4]): 46 °C
Activity (HeLa [5]): Active
Activity (Lipid bilayer [6]): Active
Activity (HeLa [7]): inactive
Activity (HeLa [8]): 60%
